From US20240000741A1, “ALL-TRANS RETINOIC ACID ENHANCES RADIOTHERAPY AND OVERCOMES IMMUNE SUPPRESSION FOR CANCER THERAPY” (The University of Chicago, priority 2022, published 2024)

How the values were obtained:
[1] = system: CT26 (a colon cancer model); assay: CT26 tumor growth after IR and RA (ablative IR); assay type: in vivo, mouse; conditions: IR and RA combination compared with single treatments
Method: 1×10^6 MC38, B16/F1, Renca or CT26 cells were subcutaneously implanted into flanks of mice. Tumors were irradiated using a Phillips IR250 orthovoltage X-ray generator (Phillips, Amsterdam, the Netherlands) operating at 250 kV 15 mA. Subcutaneous local tumors were irradiated by shielding bodies with a cylindrical lead cover with only flank tumors exposed for radiation. ATRA (400 μg/mice/day) was administered by oral gavage for 10 days. For the two-tumor model, 1×10^6 and 0.7×10^6 MC38 cells were subcutaneously implanted into the right and left flank of mice respectively. […] Tumors were measured along two diameters (length and width) and depth twice weekly and volumes were calculated as length×width×depth/2. For CD8 and CD4 T cell depletion experiments, 200 μg antibodies were injected i.p. on day 0, 2, 5 and 8 after radiation. Anti-CD11b antibody was injected i.p. every two days starting 1 day before radiation. Anti-PD-L1 antibody was administered i.p. on day 0, 3, and 7 after radiation at 200 μg/mouse. Anti-IFN-γ was administered i.p. at 500 μg/mouse every 7 days. Anti-NK1.1 antibody was administered via i.p. at 25 μg/mouse every 3 days for 3 doses. Anti-GM-CSF antibody was given by i.p. injection at 250 μg/mouse every 2 days. FTY720 was delivered via gavage at 20 μg per dose every day for 7 days. […]

[2] = system: immune cells in tumors; assay: Flow cytometric analysis of immune cells in treated MC38 tumors and draining lymph nodes; assay type: in vivo, mouse
Description: Single cell suspensions were obtained as previously described (40). Cells were blocked with anti-Fc receptor (2.4 G2, BioXCell, Lebanon, New Hampshire, United States of America) and stained for live/dead with Zombie UV, followed staining using antibodies against CD45, CD4, CD8, NK1.1, CD11b, CD11c, Ly6C, Ly6G, F4/80, CD44, CD62L.
The following antibodies were used for high-dimensional flow analysis: BV605-CX3CR, BV650-XCR1, PB-CD11 b, BV510-CD24, BV711-CD64, BV785-F4/80, AF532-CD45, PerCP-Cy5.5-1-A/I-E, PerCP-eFluor710-Flt3, PE-Cy7-CD11c, FITC-Ly6C, PE-iNOS, PE-Dazzle 594-CD103, APC-TNF, Alexa Fluor 700-CD206, and APC-Cy7-SIRPα. For IFN-γ and GrzB (515407) staining, cells were cultured with PMA/ionomycin and brefeldin A (423303, BioLegend, San Diego, California, United States of America) for 6 hours followed by intracellular staining using BD fix/perm intracellular staining kit (554714, BD Biosciences, Franklin Lakes, New Jersey, United States of America). For TNF-α staining, cells were stimulated by PMA/ionomycin and brefeldin A for 4 hours followed by intracellular staining. Foxp3 (17-5773-82, Thermo Fisher Scientific, Waltham, Massachusetts, United States of America) Ki67 (Clone 16-A8, BioLegend, San Diego, California, United States of America) and iNOS staining were performed following Foxp3 staining protocol (00-5523-00, Thermo Fisher Scientific, Waltham, Massachusetts, United States of America). Cells were analyzed on Fortessa flow cytometer (BD Biosciences, Franklin Lakes, New Jersey, United States of America) or on Aurora spectral cytometer (Cytek Biosciences, Fremont, California, United States of America. Data was analyzed with software sold under the tradename FLOWJO software (FlowJo LLC, Ashland, Oregon, United States of America).
Immune cells in tumors 4 days after the start of the treatment were examined. […] In CD11b+ subsets, Ly6C^+ cells, including CD11c^+Ly6C^+ cells, increased by 4-fold in tumors receiving the combination treatment. […] Next, the DC population was examined by analyzing high-dimensional flow cytometry data using traditional dendritic cell (DC) markers. Monocyte-derived dendritic cells (MoDCs) (Ly6C^+CD11 b^+CD11c^+ MHC-II^+CXCR3^+CD64^+SIRPα^+CD206^− cells), a low level of type two dendritic cells (DC2s) (Ly6C^−CD11b^+CD11c^+MHC-11^+CXCR3^+CD64^−SIRPα+CD206^−) and a very low level of type one dendritic cells (DC1s) (Ly6C^−CD11b^−CD11c^+MHC-11^+ CXCR1^+CD103^+CD64^−) were detected in IR and RA treated tumors.

[3] = IR and RA treatment, high-dimensional flow cytometry
[4] = IR+RA vs single treatment, day 8
[5] = IR+RA, 4 days after start of treatment
[6] = after IR+RA combination treatment

CC1=C(/C=C/C(C)=C/C=C/C(C)=C/C(=O)O)C(C)(C)CCC1 [RA, all-trans retinoic acid]
CT26 tumor growth [1]: significant benefit
expression of TNF-α in CD11b+ cells ([2]; IR and RA combination treatment): Elevated expression
DC1 population [2, 3]: not changed
DC2 population [2, 3]: not changed
level of monocyte-derived dendritic cells (MoDCs) [2, 3]: significantly induced
increase of CD8+ T cells infiltration in tumors ([2]; IR+RA compared to IR treated tumors, eight days after treatment commencement, p<0.05): about 3 fold
ratio of CD8+ IFN-γ+ cells to Treg ([2]; IR+RA compared to any single treatment, day 8): increased significantly
percentage of CD8+ IFN-γ+ cells in tumors and draining lymph nodes [2, 4]: increased
percentage of CD8+GzmB+ cells in tumors and draining lymph nodes [2, 4]: increased
CD11b+iNOS+ cells in tumors [2, 5]: 11.1%
increase of Ly6C+ cells, including CD11c+Ly6C+ cells, in CD11b+ subsets [2, 5]: 4 fold
percentage of CD4+ T cells in tumors ([2]; IR+RA, day 4 post treatment): no significant change
percentage of CD8+ T cells in tumors ([2]; IR+RA, day 4 post treatment): only a marginal change
percentage of Foxp3+ (Treg) cells in CD4+ T cells ([2]; IR+RA, day 8): decreased
CD11b+CD11c+iNOS+TNF-α+ cells in tumors ([2]; IR+RA, day 8, compared to any other treatment group): more
number of iNOS-producing Inf-MACs in tumors ([2]; IR+RA, tumors in CCR2 KO hosts vs WT mice): significantly lower
CD11b+iNOS+ cells in tumors ([2]; RA alone, 4 days after start of treatment): 1.8%
Inf-MAC induction by IR plus RA ([2]; Rag1−/− hosts given IFN-γ−/− T cells compared to WT T cells): significantly abrogated
Ki67+ proliferation in DLN, CD8+ and CD4+ [2, 6]: increased
percentage of naïve T cells (CD62L+CD44−) in DLN, CD8+ and CD4+ [2, 6]: decreased
